Results reported in ChEMBL document CHEMBL5252600, “Anti-Aβ42 Aggregative Polyketides from the Antarctic Psychrophilic Fungus Pseudogymnoascus sp. OUCMDZ-3578” (J Nat Prod, 2023).
Activity calls are given as the source filed them. The rule behind the calls is not given here.

Columns and labels:
[1] = target: T1, Amyloid-beta precursor protein (Homo sapiens, UniProt P05067); experiment: Inhibition of Amyloid beta (1 to 42) (unknown origin) aggregation incubated for 24 hrs by ThioflavinT-dye based fluorescence analysis
[2] = target: T1, Amyloid-beta precursor protein; experiment: Inhibition of Amyloid beta (1 to 42) (unknown origin) aggregation at 100 uM incubated for 24 hrs by ThioflavinT-dye based fluorescence analysis
[3] = Metal chelating activity assessed as compound-Fe3+ complex formation incubated for 1 hr by UV-vis spectrophotometric analysis
[4] = Metal chelating activity assessed as compound-Cu2+ complex formation incubated for 1 hr by UV-vis spectrophotometric analysis
[5] = Metal chelating activity assessed as compound-Zn2+ complex formation incubated for 1 hr by UV-vis spectrophotometric analysis
[6] = target: T1, Amyloid-beta precursor protein; experiment: Disaggregation of Fe3+ induced Amyloid beta (1 to 42) (unknown origin) aggregation at 100 uM incubated for 24 hrs by ThioflavinT-dye based fluorescence analysis

T1 sequence (P05067 whole entry): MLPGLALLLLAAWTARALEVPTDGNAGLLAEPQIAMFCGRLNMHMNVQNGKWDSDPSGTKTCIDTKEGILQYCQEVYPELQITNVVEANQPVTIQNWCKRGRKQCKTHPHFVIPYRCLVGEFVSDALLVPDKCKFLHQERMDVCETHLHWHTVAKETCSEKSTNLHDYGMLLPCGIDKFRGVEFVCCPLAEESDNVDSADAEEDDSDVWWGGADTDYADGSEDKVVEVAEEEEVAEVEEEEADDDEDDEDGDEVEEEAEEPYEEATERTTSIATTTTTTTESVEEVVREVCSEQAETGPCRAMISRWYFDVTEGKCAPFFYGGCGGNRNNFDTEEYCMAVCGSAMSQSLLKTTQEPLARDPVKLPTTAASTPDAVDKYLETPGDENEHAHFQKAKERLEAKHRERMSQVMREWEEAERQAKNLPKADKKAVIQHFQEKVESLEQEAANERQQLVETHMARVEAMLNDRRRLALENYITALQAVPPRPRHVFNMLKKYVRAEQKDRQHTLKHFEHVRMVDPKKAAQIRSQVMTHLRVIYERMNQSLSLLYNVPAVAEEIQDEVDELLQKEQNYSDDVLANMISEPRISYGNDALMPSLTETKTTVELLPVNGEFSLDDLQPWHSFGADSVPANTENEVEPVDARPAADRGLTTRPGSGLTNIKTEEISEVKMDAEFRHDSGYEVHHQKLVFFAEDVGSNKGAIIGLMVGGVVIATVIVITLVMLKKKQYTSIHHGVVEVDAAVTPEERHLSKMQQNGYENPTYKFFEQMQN

Compound | IC50 [1] | inhibition [2] | Activity [3] | Activity [4] | Activity [5] | Activity [6]
O=C(O[C@@H]1Cc2c(O)cc(O)cc2O[C@@H]1c1cc(O)c(O)c(O)c1)c1cc(O)c(O)c(O)c1 [EPIGALOCATECHIN GALLATE] | 140 nM | – | – | – | – | –
COC(=O)c1cc(O)cc(OC)c1C(=O)c1c(O)cc(CO[C@H]2O[C@H](CO)[C@@H](O)[C@H](O)[C@H]2O)cc1O | 1030 nM | 84.5% | Active | Active | Active | Active
COC(=O)c1c(O)cc(C)c(Sc2c(O)cc(OC)c(Oc3c(O)cc(C)cc3O)c2O)c1C(=O)c1c(O)cc(C)cc1O | 100 nM | 85.7% | Active | Active | Active | Active
COC(=O)c1cc(O[C@@H]2O[C@H](CO)[C@@H](O)[C@H](O)[C@H]2O)cc(OC)c1C(=O)c1c(O)cc(C)cc1O | 4730 nM | 85.2% | – | – | – | –
COC(=O)c1cc(O[C@@H]2O[C@H](COC(=O)CCC(=O)O)[C@@H](O)[C@H](O)[C@H]2O)cc(OC)c1C(=O)c1c(O)cc(C)cc1O | 3010 nM | 64.1% | – | – | – | –

Further compounds by falling IC50 [1], results first:

IC50 [1] | inhibition [2] | Activity [3] | Activity [4] | Activity [5] | Activity [6] | Compound
1560 nM | 85.5% | – | – | – | – | COC(=O)c1c(O)cc(C)cc1C(=O)c1cc(O)cc2oc3cc4c(c(O)c3c12)C(=O)c1c(O)cc(C)cc1C4=O
1070 nM | 73.2% | Active | Active | Active | Active | COc1cc(O)cc(C(=O)O)c1C(=O)c1c(O)cc(CO)cc1O
180 nM | 86.3% | Active | Active | Active | Active | Cc1cc(O)c(C(=O)c2c(O)cc3c(c2O)C(=O)c2c(O)cc(C)cc2C3=O)c(C(=O)c2cc(O)c(O)cc2O)c1
